Data reported in ChEMBL document CHEMBL1152001 (Bioorg Med Chem Lett, 1993).
Non-standard residues stand in square brackets, D forms with d. Residues, ends and D or L forms follow the SMILES beside them. pGlu = O=C1CC[C@@H](C(=O)O)N1

Biological target: Substance-P receptor (Rattus norvegicus, UniProt P14600)
Assay: Tested for inhibition of tachykinin 1 (NK1) receptor in rat brain synaptosomal membranes using [125I]BH-SP as radioligand
Type: cell membranes, Membrane

Chain of Substance-P receptor (P14600 whole entry): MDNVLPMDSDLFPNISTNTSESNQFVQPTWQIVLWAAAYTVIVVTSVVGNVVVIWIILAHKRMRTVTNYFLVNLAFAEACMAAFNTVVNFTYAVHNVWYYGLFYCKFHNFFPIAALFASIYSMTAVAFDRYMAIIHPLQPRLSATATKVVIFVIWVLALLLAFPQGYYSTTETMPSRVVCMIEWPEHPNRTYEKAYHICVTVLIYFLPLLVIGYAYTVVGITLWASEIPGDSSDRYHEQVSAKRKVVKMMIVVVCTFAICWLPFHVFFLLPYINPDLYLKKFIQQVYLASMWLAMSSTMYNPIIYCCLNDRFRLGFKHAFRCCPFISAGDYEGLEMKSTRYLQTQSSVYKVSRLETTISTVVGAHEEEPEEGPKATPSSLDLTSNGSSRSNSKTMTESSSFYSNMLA

SMILES	IC50 [nM]
CSCC[C@H](NC(=O)[C@H](CC(C)C)NC(=O)CNC(=O)[C@H](Cc1ccc(O)cc1)NC(=O)[C@H](Cc1ccccc1)NC(=O)[C@H](CCCCN)NC(=O)[C@H](CC(N)=O)NC(=O)[C@@H]1CCCN1C(=O)[C@H](CC(=O)O)NC(=O)[C@H](C)NC(=O)[C@@H]1CCC(=O)N1)C(N)=O ([pGlu]ADPNKFYGLM-NH2)	2.3
CC[C@H](C)[C@H](NC(=O)[C@H](Cc1ccccc1)NC(=O)[C@H](C)NC(=O)[C@H](CC(=O)O)NC(=O)[C@H](CCCCN)NC(=O)[C@H](CO)NC(=O)[C@@H]1CCCN1C(=O)[C@@H]1CCC(=O)N1)C(=O)NCC(=O)N[C@@H](CC(C)C)C(=O)N[C@@H](CCSC)C(N)=O ([pGlu]PSKDAFIGLM-NH2)	31
CSCC[C@H](NC(=O)[C@H](CC(C)C)NC(=O)CNC(=O)[C@@H](NC(=O)[C@H](Cc1ccccc1)NC(=O)[C@H](CCC(N)=O)NC(=O)[C@H](CC(=O)O)NC(=O)[C@H](CO)NC(=O)[C@H](CCCCN)NC(=O)[C@@H]1CCCN1C(=O)[C@@H](NC(=O)[C@@H](N)CC(=O)O)C(C)C)C(C)C)C(N)=O [KASSININ]	75
CSCC[C@H](NC(=O)[C@H](CC(C)C)NC(=O)CNC(=O)[C@@H](NC(=O)[C@H](Cc1ccccc1)NC(=O)[C@H](Cc1ccccc1)NC(=O)[C@H](CC(=O)O)NC(=O)[C@H](Cc1c[nH]cn1)NC(=O)[C@H](CCSC)NC(=O)[C@@H](N)CC(=O)O)C(C)C)C(N)=O [NEUROKININ B]	870
